Experimental data: ChEMBL document CHEMBL3885861, “Open TG-GATES”

Species on record: Rattus norvegicus
Experiment: Open TG-GATES - Regimen: Single
Type: toxicity, organism-based, Sprague-Dawley
Design: regimen Single, gender Male, age 6 weeks
Conditions: in vivo, po, route gavage; for Bas / Eos / Fbg / Hb / Ht / Lym / MCH / MCHC / Mono / Neu / PT / Plat / RBC / Ret / WBC: tissue Blood; for KIDNEY_L / KIDNEY_R / KIDNEY_TOTAL: tissue Kidney; for LIVER: tissue Liver; for ALP / ALT / AST / BUN / CRE / Ca / DBIL / IP / K / LDH / Na / PL / RALB / TBIL / TC / TG / TP / gamma-GTP: tissue Plasma
[1] = 0 mg/kg, 3 h, dose level Control
[2] = 0 mg/kg, 6 h, dose level Control
[3] = 0 mg/kg, 9 h, dose level Control
[4] = 0 mg/kg, 24 h, dose level Control

## CCC(C)(C)C(=O)O[C@H]1C[C@@H](C)C=C2C=C[C@H](C)[C@H](CC[C@@H]3C[C@@H](O)CC(=O)O3)[C@H]21 [SIMVASTATIN]
[1]
  TERMINAL_BW: 203.4 g
  Bas: 0%
  Eos: 1%
  Fbg: 216.8 mg/dL
  Hb: 12.9 g/dL
  Ht: 39.1%
  Lym: 83.6%
  MCH: 21.5 pg
  MCHC: 32.8%
  Mono: 6%
  Neu: 9.6%
  PT: 11 s
  Plat: 101.5 x10_4/uL
  RBC: 596.2 x10_4/ul
  Ret: 7.8%
  WBC: 114.1 x10_2/uL
  KIDNEY_L: 0.9 g
  KIDNEY_R: 1 g
  KIDNEY_TOTAL: 1.9 g
  LIVER: 9.7 g
  ALP: 839.8 IU/L
  ALT: 35.4 IU/L
  AST: 61.6 IU/L
  BUN: 14.4 mg/dL
  CRE: 0.6 mg/dL
  Ca: 11 mg/dL
  DBIL: 0.02 mg/dL
  IP: 9.1 mg/dL
  K: 4.4 meq/L
  LDH: 82.2 IU/L
  Na: 138.8 meq/L
  PL: 147.4 mg/dL
  RALB: 3.5 g/dL
  TBIL: 0.4 mg/dL
  TC: 83.8 mg/dL
  TG: 63.6 mg/dL
  TP: 5.6 g/dL
  gamma-GTP: 1.6 IU/L
[2]
  TERMINAL_BW: 199.1 g
  Bas: 0%
  Eos: 1%
  Fbg: 208.2 mg/dL
  Hb: 13 g/dL
  Ht: 39.5%
  Lym: 79.8%
  MCH: 21.8 pg
  MCHC: 32.8%
  Mono: 6.2%
  Neu: 13%
  PT: 11.8 s
  Plat: 111.5 x10_4/uL
  RBC: 597.2 x10_4/ul
  Ret: 9.2%
  WBC: 109.4 x10_2/uL
  KIDNEY_L: 0.9 g
  KIDNEY_R: 0.9 g
  KIDNEY_TOTAL: 1.7 g
  LIVER: 8.5 g
  ALP: 648 IU/L
  ALT: 29 IU/L
  AST: 60.4 IU/L
  CRE: 0.5 mg/dL
  Ca: 10.8 mg/dL
  DBIL: 0.046 mg/dL
  IP: 9.4 mg/dL
  K: 4.5 meq/L
  LDH: 77 IU/L
  Na: 137.8 meq/L
  PL: 120.4 mg/dL
  RALB: 3.6 g/dL
  TBIL: 0.4 mg/dL
  TC: 70.6 mg/dL
  TG: 47.8 mg/dL
  TP: 5.5 g/dL
  gamma-GTP: 1 IU/L
[3]
  TERMINAL_BW: 197.5 g
  Bas: 0%
  Eos: 1%
  Fbg: 215.2 mg/dL
  Hb: 13.2 g/dL
  Ht: 40.2%
  Lym: 85.6%
  MCHC: 32.9%
  Mono: 5.4%
  Neu: 8.2%
  PT: 11.7 s
  Plat: 114.5 x10_4/uL
  RBC: 605.4 x10_4/ul
  Ret: 10.2%
  WBC: 96.4 x10_2/uL
  KIDNEY_L: 0.9 g
  KIDNEY_R: 0.9 g
  KIDNEY_TOTAL: 1.8 g
  LIVER: 8.4 g
  ALP: 810.4 IU/L
  ALT: 29.2 IU/L
  AST: 58.4 IU/L
  BUN: 12.2 mg/dL
  CRE: 0.6 mg/dL
  Ca: 10.9 mg/dL
  DBIL: 0.04 mg/dL
  IP: 10.9 mg/dL
  K: 4.6 meq/L
  LDH: 68.2 IU/L
  Na: 137.6 meq/L
  PL: 110.8 mg/dL
  RALB: 3.7 g/dL
  TBIL: 0.4 mg/dL
  TC: 61.8 mg/dL
  TG: 34.2 mg/dL
  TP: 5.2 g/dL
  gamma-GTP: 1.8 IU/L
[4]
  TERMINAL_BW: 215.6 g
  Bas: 0%
  Eos: 1%
  Fbg: 222.6 mg/dL
  Hb: 13 g/dL
  Ht: 40.1%
  Lym: 82.8%
  MCHC: 32.5%
  Mono: 8.2%
  Neu: 8.4%
  Plat: 113.8 x10_4/uL
  RBC: 614 x10_4/ul
  Ret: 9.5%
  KIDNEY_L: 1 g
  KIDNEY_R: 1 g
  KIDNEY_TOTAL: 2 g
  ALP: 887.6 IU/L
  ALT: 38.8 IU/L
  AST: 65 IU/L
  BUN: 18.6 mg/dL
  CRE: 0.6 mg/dL
  Ca: 10.8 mg/dL
  DBIL: 0.05 mg/dL
  IP: 8 mg/dL
  K: 4.6 meq/L
  LDH: 97.8 IU/L
  Na: 139.4 meq/L
  PL: 144.8 mg/dL
  RALB: 3.7 g/dL
  TBIL: 0.4 mg/dL
  TC: 79.6 mg/dL
  TG: 76.6 mg/dL
  TP: 5.5 g/dL
  gamma-GTP: 1.6 IU/L
40 mg/kg, 3 h, dose level Low
  TERMINAL_BW: 203.4 g
  Bas: 0%
  Eos: 0.6%
  Fbg: 213.2 mg/dL
  Hb: 12.4 g/dL
  Ht: 37.8%
  Lym: 81.6%
  MCHC: 32.8%
  Mono: 6%
  Neu: 12%
  PT: 11 s
  Plat: 112.7 x10_4/uL
  RBC: 568 x10_4/ul
  Ret: 10%
  WBC: 120.8 x10_2/uL
  KIDNEY_L: 0.9 g
  KIDNEY_R: 0.9 g
  KIDNEY_TOTAL: 1.9 g
  LIVER: 9.7 g
  ALP: 793.6 IU/L
  ALT: 31.4 IU/L
  AST: 61.6 IU/L
  BUN: 13.6 mg/dL
  CRE: 0.6 mg/dL
  Ca: 10.8 mg/dL
  DBIL: 0.04 mg/dL
  IP: 8.9 mg/dL
  K: 4.4 meq/L
  LDH: 91.8 IU/L
  Na: 137.8 meq/L
  PL: 144.6 mg/dL
  RALB: 3.8 g/dL
  TBIL: 0.3 mg/dL
  TC: 77.4 mg/dL
  TG: 71.2 mg/dL
  TP: 5.6 g/dL
  gamma-GTP: 1.4 IU/L
40 mg/kg, 6 h, dose level Low
  TERMINAL_BW: 196.1 g
  Bas: 0%
  Eos: 1%
  Fbg: 216.2 mg/dL
  Hb: 13.4 g/dL
  Ht: 41.2%
  Lym: 81.6%
  MCH: 21.8 pg
  MCHC: 32.6%
  Mono: 7.4%
  Neu: 10.2%
  Plat: 112.9 x10_4/uL
  RBC: 615.8 x10_4/ul
  Ret: 9.1%
  WBC: 93.2 x10_2/uL
  KIDNEY_L: 0.9 g
  KIDNEY_R: 0.9 g
  KIDNEY_TOTAL: 1.8 g
  LIVER: 8.7 g
  ALP: 826.8 IU/L
  ALT: 32.8 IU/L
  AST: 58.6 IU/L
  CRE: 0.5 mg/dL
  Ca: 10.2 mg/dL
  DBIL: 0.08 mg/dL
  IP: 9.6 mg/dL
  K: 4.4 meq/L
  LDH: 98.4 IU/L
  Na: 137.6 meq/L
  PL: 132.4 mg/dL
  RALB: 3.6 g/dL
  TBIL: 0.4 mg/dL
  TC: 75.8 mg/dL
  TG: 50.8 mg/dL
  TP: 5.6 g/dL
  gamma-GTP: 1.2 IU/L
40 mg/kg, 9 h, dose level Low
  TERMINAL_BW: 200.4 g
  Bas: 0%
  Eos: 0.8%
  Fbg: 214.8 mg/dL
  Hb: 13.2 g/dL
  Ht: 40.1%
  Lym: 78.6%
  MCH: 22 pg
  MCHC: 32.9%
  Mono: 7.8%
  Neu: 12.8%
  PT: 11.7 s
  Plat: 110 x10_4/uL
  RBC: 601.2 x10_4/ul
  Ret: 9.1%
  WBC: 101.8 x10_2/uL
  KIDNEY_L: 0.9 g
  KIDNEY_R: 0.9 g
  KIDNEY_TOTAL: 1.8 g
  LIVER: 8.2 g
  ALP: 749.6 IU/L
  ALT: 32.8 IU/L
  AST: 58.4 IU/L
  BUN: 12.6 mg/dL
  CRE: 0.7 mg/dL
  DBIL: 0.016 mg/dL
  K: 4.6 meq/L
  LDH: 91 IU/L
  Na: 138 meq/L
  PL: 118.4 mg/dL
  RALB: 3.7 g/dL
  TBIL: 0.4 mg/dL
  TC: 64.8 mg/dL
  TG: 42 mg/dL
  TP: 5.4 g/dL
  gamma-GTP: 2 IU/L
40 mg/kg, 24 h, dose level Low
  TERMINAL_BW: 216.2 g
  Bas: 0%
  Eos: 1%
  Fbg: 221.2 mg/dL
  Hb: 12.5 g/dL
  Ht: 38.2%
  Lym: 78.6%
  MCHC: 32.8%
  Mono: 9.8%
  Neu: 11%
  Plat: 119.9 x10_4/uL
  RBC: 588.4 x10_4/ul
  WBC: 118.8 x10_2/uL
  KIDNEY_L: 1 g
  KIDNEY_R: 1 g
  KIDNEY_TOTAL: 2 g
  LIVER: 10.8 g
  ALP: 866.2 IU/L
  ALT: 41.6 IU/L
  AST: 63.6 IU/L
  BUN: 18.6 mg/dL
  CRE: 0.5 mg/dL
  Ca: 10.8 mg/dL
  DBIL: 0.022 mg/dL
  IP: 8.4 mg/dL
  K: 4.6 meq/L
  LDH: 108.4 IU/L
  Na: 140.2 meq/L
  PL: 144.6 mg/dL
  RALB: 3.7 g/dL
  TBIL: 0.3 mg/dL
